Nine molecules from the supplement of paper PMC11061612 can be followed below.

Assay [1] has as its system CAPAN-1 (Pancreatic Carcinoma). The assay is described as follows: Bliss excess, mean over the matrix (fraction); higher = more synergy. Summed up: (§1)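 Cell lines grown in DMEM/F12 or RPMI with 10% FBS were plated in 1536-well plates and held 24 hours at 37°C, 5% CO2 before 72 hours of exposure to two-drug dose matrices, with DMSO typically at 0.2%. CellTiter-Glo 2.0 luminescence gave viability, which was converted to inhibition. Vehicle wells were set to 0 and blank wells to 1. Combination Emax is the second-highest inhibition in the matrix, and Bliss excess is the observed combination effect minus the expected EA + EB − EA·EB, where EA and EB are the single-agent effects.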

Assay [2] relates to K5 (Thyroid Gland Carcinoma). Described as above. Summed up:
as §1

For assay [3], the system named is MDA-MB-468 (Breast Carcinoma). The assay is described as above. Summed up: as §1
For another assay, the system named is NB14 (Neuroblastoma). The assay is described as above. In outline:
as §1

Another assay has as its system NCI-H2461 (Mesothelioma). Described as above. Summed up: as §1
In assay [4] the test system is NCI-H747 (Colorectal Carcinoma). Described as above. In outline: as §1
In assay [5] the test system is RPMI-6666 (Non-Cancerous). The description is as above. Summed up: as §1
The test system of the next assay is SH-4 (Melanoma). The assay is described as above. In outline:
as §1

The test system of assay [6] is SIMA (Neuroblastoma). The description is as above. Summed up:
as §1

Assay [7] relates to SIMA (Neuroblastoma). The assay is described as follows: combination Emax (second highest fraction inhibited in the dose matrix, 72 h); higher = more inhibition; extreme values may be limits of the assay. Summed up: as §1
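For Bliss excess, mean over the matrix in this document: after 72 h of two-drug dosing.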

With `CN(C)CCCOc1ccc(-c2ccc3ncc4c(c3c2)n(C2CCOCC2)c(=O)n4C)cn1` [AZD0156] + O=C(c1cc(Cc2n[nH]c(=O)c3ccccc23)ccc1F)N1CCN(C(=O)C2CC2)CC1 [Olaparib] (first compound max 3 µM, partner max 3 µM), the Bliss excess in assay [1] was -0.0864; in assay [2], 0.0542; in assay [3], 0.0645; in the assay on NB14 (Neuroblastoma), 0.218; in the assay with NCI-H2461 (Mesothelioma) it was -0.0194; in assay [4] it was -0.0461. Further, the Bliss excess is 0.119 in [5], 0.0237 in the assay on SH-4 (Melanoma) and 0.0694 with SIMA (Neuroblastoma) [6]. The “combination Emax” value with SIMA (Neuroblastoma) [7] was found to be 0.386.
`CN(CCO)CC[C@H](CSc1ccccc1)Nc1ccc(S(=O)(=O)NC(=O)c2ccc(N3CCC([C@@H](O)c4ccccc4-c4ccc(Cl)cc4)CC3)cc2)cc1S(=O)(=O)C(F)(F)F` [AZD4320] + CN(C)CCCOc1ccc(-c2ccc3ncc4c(c3c2)n(C2CCOCC2)c(=O)n4C)cn1 [AZD0156] (first compound max 1 µM, 7x7, partner max 1 µM): the Bliss excess in assay [1] was -0.0654; in assay [2], -0.0779; in assay [3], -0.127; in the assay on NB14 (Neuroblastoma), 0.061; in the assay with NCI-H2461 (Mesothelioma), -0.0479; in [4], -0.0546. In addition, the Bliss excess in [5] is -0.0597; with SH-4 (Melanoma), -0.0238; in the assay on SIMA (Neuroblastoma) [6], -0.14. Moreover, the “combination Emax” value in the assay with SIMA (Neuroblastoma) [7] turned out to be 0.848.
Turning to `Cc1c2c(nn1C)CSCc1cc(n(C)n1)CSc1cc(c3ccccc3c1)OCCCc1c(C(=O)O)n(C)c3c-2c(Cl)ccc13` [AZD5991] + Cn1cnc2c(F)c(Nc3ccc(Br)cc3Cl)c(C(=O)NOCCO)cc21 [Selumetinib] (first compound max 1 µM, 7x7, partner max 3 µM), the Bliss excess in assay [1] was -0.0269; in [2], -0.0216; in assay [3] it was -0.0389; in the assay with NB14 (Neuroblastoma), 0.0392; in the assay with NCI-H2461 (Mesothelioma) it was -0.0131; in assay [4], 0.0032. For the same molecule, the Bliss excess in assay [5] was found to be 0.0387; with SH-4 (Melanoma), 0.0465; in the assay on SIMA (Neuroblastoma) [6], 0.0879. Moreover, the “combination Emax” value with SIMA (Neuroblastoma) [7] was 0.516.
With `Cc1c2c(nn1C)CSCc1cc(n(C)n1)CSc1cc(c3ccccc3c1)OCCCc1c(C(=O)O)n(C)c3c-2c(Cl)ccc13` [AZD5991] + C=CCn1c(=O)c2cnc(Nc3ccc(N4CCN(C)CC4)cc3)nc2n1-c1cccc(C(C)(C)O)n1 [AZD1775] (first compound max 1 µM, partner max 1 µM), the Bliss excess is -0.0981 in [1]; -0.0391 in assay [2]; -0.0956 in [3]; -0.0137 in the assay on NB14 (Neuroblastoma); 0.0081 in the assay on NCI-H2461 (Mesothelioma); -0.0103 in assay [4]. Further, the figures for the Bliss excess (in assay [5]; with SH-4 (Melanoma); in the assay on SIMA (Neuroblastoma) [6]) were 0.0122, 0.101 and -0.0713, respectively. Moreover, the “combination Emax” value in the assay on SIMA (Neuroblastoma) [7] is 0.973.
Regarding `Cc1c2c(nn1C)CSCc1cc(n(C)n1)CSc1cc(c3ccccc3c1)OCCCc1c(C(=O)O)n(C)c3c-2c(Cl)ccc13` [AZD5991] + C1CN(CCC1(C(=O)N[C@@H](CCO)C2=CC=C(C=C2)Cl)N)C3=NC=NC4=C3C=CN4 [Capivasertib] (first compound max 1 µM, 7x7, partner max 3 µM), the Bliss excess was -0.0318 in assay [1]; -0.021 in assay [2]; 0.0256 in assay [3]; 0.0283 with NB14 (Neuroblastoma); -0.0345 in the assay with NCI-H2461 (Mesothelioma); 0.0106 in assay [4]. In addition, the Bliss excess in assay [5] is 0.0216; in the assay with SH-4 (Melanoma) it was -0.0029; with SIMA (Neuroblastoma) [6], -0.0195. Moreover, in the assay on SIMA (Neuroblastoma) [7], the “combination Emax” value was found to be 0.176.
In the case of `CN(CCO)CC[C@H](CSc1ccccc1)Nc1ccc(S(=O)(=O)NC(=O)c2ccc(N3CCC([C@@H](O)c4ccccc4-c4ccc(Cl)cc4)CC3)cc2)cc1S(=O)(=O)C(F)(F)F` [AZD4320] + C1CN(CCC1(C(=O)N[C@@H](CCO)C2=CC=C(C=C2)Cl)N)C3=NC=NC4=C3C=CN4 [Capivasertib] (first compound max 1 µM, 7x7, partner max 3 µM), the Bliss excess is -0.0405 in assay [1]; -0.0525 in [2]; -0.0528 in assay [3]; 0.0472 in the assay on NB14 (Neuroblastoma); -0.0564 in the assay on NCI-H2461 (Mesothelioma); -0.0682 in assay [4]. The Bliss excess was 0.0083 in [5], -0.0462 in the assay with SH-4 (Melanoma) and -0.0435 in the assay on SIMA (Neuroblastoma) [6]. For the same molecule, the “combination Emax” value in the assay on SIMA (Neuroblastoma) [7] was determined as 0.814.
Turning to `Cc1c2c(nn1C)CSCc1cc(n(C)n1)CSc1cc(c3ccccc3c1)OCCCc1c(C(=O)O)n(C)c3c-2c(Cl)ccc13` [AZD5991] + Cc1cc2ncnn2cc1Nc1ncc2c(n1)n(C1CCOCC1)c(=O)n2C [AZD7648] (first compound max 1 µM, 7x7, partner max 10 µM), the Bliss excess was -0.0057 in assay [1]; -0.0537 in assay [2]; 0.008 in assay [3]; -0.0505 in the assay on NB14 (Neuroblastoma); -0.0516 with NCI-H2461 (Mesothelioma); -0.0703 in [4]. Also, the results for the Bliss excess (in assay [5]; in the assay with SH-4 (Melanoma)) were -0.0204 and -0.0079, respectively. Moreover, in the assay with SIMA (Neuroblastoma) [7], the “combination Emax” value was found to be 0.543.
As to `CN(CCO)CC[C@H](CSc1ccccc1)Nc1ccc(S(=O)(=O)NC(=O)c2ccc(N3CCC([C@@H](O)c4ccccc4-c4ccc(Cl)cc4)CC3)cc2)cc1S(=O)(=O)C(F)(F)F` [AZD4320] + CCN(CCO)CCCOc1ccc2c(Nc3cc(CC(=O)Nc4cccc(F)c4)[nH]n3)ncnc2c1 [AZD2811] (first compound max 1 µM, 7x7, partner max 1 µM), the Bliss excess in assay [1] is -0.0309; in assay [2] it was -0.0283; in [3], 0.0461; with NB14 (Neuroblastoma), 0; in the assay on NCI-H2461 (Mesothelioma), -0.0195; in assay [4], -0.0558. Moreover, the Bliss excess is 0.17 in [5], -0.0236 in the assay on SH-4 (Melanoma) and 0.0814 in the assay with SIMA (Neuroblastoma) [6]. For the same molecule, the “combination Emax” value in the assay on SIMA (Neuroblastoma) [7] came to 0.971.
For `Cc1c2c(nn1C)CSCc1cc(n(C)n1)CSc1cc(c3ccccc3c1)OCCCc1c(C(=O)O)n(C)c3c-2c(Cl)ccc13` [AZD5991] + C[C@@H](Nc1cc(F)cc(F)c1)c1cc(C(=O)N(C)C)cc2c(=O)cc(N3CCOCC3)oc12 [AZD8186] (first compound max 1 µM, 7x7, partner max 3 µM), the Bliss excess in assay [1] is -0.0595; in assay [2], -0.0231; in assay [3] it was 0.0092; in the assay on NB14 (Neuroblastoma) it was 0.0059; in the assay with NCI-H2461 (Mesothelioma), -0.0062; in assay [4] it was -0.0421. Further, the figures for the Bliss excess (in assay [5]; in the assay with SH-4 (Melanoma); with SIMA (Neuroblastoma) [6]) were -0.0005, 0.0203 and -0.0084, respectively. Further, in the assay with SIMA (Neuroblastoma) [7], the “combination Emax” value amounted to 0.218.
